Values after ≈ are worked out from the molar mass of the structure shown.
Assays:
physchem = conditions: kinetic from dmso stock
In short: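 DMSO doubling dilutions were diluted twenty-fold into 100 mM citrate (pH 4), PBS (pH 7.4) or carbonate-bicarbonate (pH 9). After 24 h equilibration at room temperature, absorbance was read at 620 nm. The reported value is the highest concentration without measurable precipitate.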

[1] = system: Staphylococcus aureus (Isolate ID ATCC 29213); test: Antibacterial activity, MIC, S. aureus; type: cell-based; conditions: Staphylococcus aureus, ATCC29213, Gram positive strain; broth microdilution or agar dilution
In short: (§1)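 Compounds are serially diluted in broth or agar as CLSI specifies for aerobically growing bacteria, and the MIC is then recorded for each strain.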

[2] = system: Enterococcus faecalis (Isolate ID ATCC 29212); test: Antibacterial activity, MIC, E. faecalis; type: cell-based; conditions: Enterococcus faecalis, ATCC29212; Gram positive strain; broth microdilution or agar dilution
In short: as §1

[3] = system: Streptococcus pyogenes (Isolate ID ATCC 51339); test: Antibacterial activity, MIC, S. pyogenes; type: cell-based; conditions: Streptococcus pyogenes, ATCC51339, Gram positive strain; broth microdilution or agar dilution
In short: as §1

[4] = system: Haemophilus influenzae (Isolate ID ATCC 49247); test: Antibacterial activity, MIC, H. influenzae; type: cell-based; conditions: Haemophilus influenzae, ATCC49247; Gram negative strain; broth microdilution or agar dilution
In short: as §1

[5] = pH 7.4, aqueous buffer, Solubility (pH 7.4)
[6] = pH 7.4, aqueous buffer, Solubility Range
[7] = pH 7.4, aqueous buffer, Max Solubility
[8] = pH 7.4, aqueous buffer, Solubility Range (maximum solubility)
[9] = pH 9, aqueous buffer, Max Solubility
[10] = pH 9, aqueous buffer, Solubility Range (maximum solubility)

SMILES | solubility at 24 h (physchem; [5]) [µg/mL] | solubility at 24 h (physchem; [6]) [µg/mL] | MIC [1] [µg/mL] | MIC [2] [µg/mL] | MIC [3] [µg/mL] | MIC [4] [µg/mL] | solubility at 24 h (physchem; [7]) [µg/mL] | solubility at 24 h (physchem; [8]) [µg/mL] | solubility at 24 h (physchem; [9]) [µg/mL] | solubility at 24 h (physchem; [10]) [µg/mL]
CCNC(=O)Nc1nc2cc(-c3cnc(N4CCC(C)(C(=O)O)CC4)nc3)cc(C#Cc3cncn3C)c2s1 [Compound 144, 1-[5-[2-(ethylcarbamoylamino)-7-[2-(3-methylimidazol-4-yl)ethynyl]-1,3-benzothiazol-5-yl]pyrimidin-2-yl]-4-methyl-piperidine-4-carboxylic acid] | 400 (≈ 734 µM) | 400 to 800 (≈ 734 to 1470 µM) | 0.25 to 1 (≈ 0.459 to 1.84 µM) | ≤ 0.25 | ≤ 0.25 | 0.25 to 1 (≈ 0.459 to 1.84 µM) |  |  |  | 
CCNC(=O)Nc1nc2cc(-c3cnc(N4CCC(C)(C(=O)O)CC4)nc3)cc(C(=O)Nc3nccs3)c2s1 [Compound 145, 1-[5-[2-(ethylcarbamoylamino)-7-(thiazol-2-ylcarbamoyl)-1,3-benzothiazol-5-yl]pyrimidin-2-yl]-4-methyl-piperidine-4-carboxylic acid] | ≥ 800 | > 800 | > 16 | 0.25 to 1 (≈ 0.441 to 1.76 µM) | 1 to 16 (≈ 1.76 to 28.2 µM) | > 16 |  |  |  | 
CCNC(=O)Nc1nc2cc(-c3cnc(N4CCC(C)(C(=O)O)CC4)nc3)cc(NC(=O)c3ncccn3)c2s1 [Compound 146, 1-[5-[2-(ethylcarbamoylamino)-7-(pyrimidine-2-carbonylamino)-1,3-benzothiazol-5-yl]pyrimidin-2-yl]-4-methyl-piperidine-4-carboxylic acid] | 50 (≈ 89 µM) | 12.5 to 400 (≈ 22.3 to 712 µM) | > 16 | > 16 | > 16 | > 16 |  |  |  | 
CCNC(=O)Nc1nc2cc(-c3cnc(N4CCC(C)(C(=O)O)CC4)nc3)cc(CN(C)c3ncccn3)c2s1 [Compound 147, 1-[5-[2-(ethylcarbamoylamino)-7-[[methyl(pyrimidin-2-yl)amino]methyl]-1,3-benzothiazol-5-yl]pyrimidin-2-yl]-4-methyl-piperidine-4-carboxylic acid] | ≥ 800 | > 800 | 1 to 16 (≈ 1.78 to 28.5 µM) | ≤ 0.25 | 0.25 to 1 (≈ 0.445 to 1.78 µM) | 1 to 16 (≈ 1.78 to 28.5 µM) |  |  |  | 
CCNC(=O)Nc1nc2cc(-c3cnc(N4CCC(C)(C(=O)O)CC4)nc3)cc(C#Cc3cccnc3)c2s1 [Compound 148] | ≥ 800 | > 800 | ≤ 0.25 | ≤ 0.25 | ≤ 0.25 | 0.25 to 1 (≈ 0.462 to 1.85 µM) | ≥ 800 | > 800 |  | 
CCNC(=O)Nc1nc2cc(-c3cnc(N4CCC(C)(C(=O)O)CC4)nc3)cc(NC(=O)c3ccccn3)c2s1 [Compound 149, 1-(5-(2-(3-ethylureido)-7-(picolinamido)benzo[d]thiazol-5-yl)pyrimidin-2-yl)-4-methylpiperidine-4-carboxylic acid] | ≥ 800 | > 800 | 1 to 16 (≈ 1.78 to 28.5 µM) | ≤ 0.25 | 0.25 to 1 (≈ 0.446 to 1.78 µM) | 1 to 16 (≈ 1.78 to 28.5 µM) | ≥ 800 | > 800 |  | 
CCNC(=O)Nc1nc2cc(-c3cnc(N4CCC(C)(C(=O)O)CC4)nc3)cc(C#CC3CCCC3)c2s1 [Compound 150] | ≥ 800 | > 800 | 0.25 to 1 (≈ 0.469 to 1.88 µM) | ≤ 0.25 | > 16 | > 16 | ≥ 800 | > 800 |  | 
CCNC(=O)Nc1nc2cc(-c3cnc(N4CCC(C)(C(=O)O)CC4)nc3)cc(C#Cc3ccncc3)c2s1 [Compound 151] | 400 (≈ 739 µM) | 400 to 800 (≈ 739 to 1480 µM) | 0.25 to 1 (≈ 0.462 to 1.85 µM) | ≤ 0.25 | 0.25 to 1 (≈ 0.462 to 1.85 µM) | 1 to 16 (≈ 1.85 to 29.5 µM) |  |  | ≥ 800 | > 800
CCNC(=O)Nc1nc2cc(-c3cnc(N4CCC(C)(C(=O)O)CC4)nc3)cc(C#Cc3cccc(OC)n3)c2s1 [Compound 152, 1-[5-[2-(ethylcarbamoylamino)-7-[2-(6-methoxy-2-pyridyl)ethynyl]-1,3-benzothiazol-5-yl]pyrimidin-2-yl]-4-methyl-piperidine-4-carboxylic acid] | 100 (≈ 175 µM) | 12.5 to 400 (≈ 21.9 to 700 µM) | ≤ 0.25 | ≤ 0.25 | ≤ 0.25 | 1 to 16 (≈ 1.75 to 28 µM) |  |  | ≥ 800 | > 800
CCNC(=O)Nc1nc2cc(-c3cnc(N4CCC(C)(C(=O)O)CC4)nc3)cc(C#Cc3nnc(C)s3)c2s1 [Compound 153] | 100 (≈ 178 µM) | 12.5 to 400 (≈ 22.2 to 711 µM) | 0.25 to 1 (≈ 0.444 to 1.78 µM) | ≤ 0.25 | 0.25 to 1 (≈ 0.444 to 1.78 µM) | 1 to 16 (≈ 1.78 to 28.4 µM) |  |  | 400 (≈ 711 µM) | 400 to 800 (≈ 711 to 1420 µM)
CCNC(=O)Nc1nc2cc(-c3cnc(N4CCC(C)(C(=O)O)CC4)nc3)cc(C#Cc3ncccn3)c2s1 [Compound 154] | 200 (≈ 369 µM) | 12.5 to 400 (≈ 23 to 737 µM) | 1 to 16 (≈ 1.84 to 29.5 µM) | ≤ 0.25 | 0.25 to 1 (≈ 0.461 to 1.84 µM) | 1 to 16 (≈ 1.84 to 29.5 µM) |  |  | 400 (≈ 737 µM) | 400 to 800 (≈ 737 to 1470 µM)
CCNC(=O)Nc1nc2cc(-c3cnc(N4CCC(C)(C(=O)O)CC4)nc3)cc(C#Cc3ccncn3)c2s1 [Compound 155] | 400 (≈ 737 µM) | 400 to 800 (≈ 737 to 1470 µM) | 1 to 16 (≈ 1.84 to 29.5 µM) | ≤ 0.25 | 0.25 to 1 (≈ 0.461 to 1.84 µM) | 1 to 16 (≈ 1.84 to 29.5 µM) |  |  | ≥ 800 | > 800
CCNC(=O)Nc1nc2cc(-c3cnc(N4CCC(C)(C(=O)O)CC4)nc3)cc(C#Cc3nccs3)c2s1 [Compound 156] | ≥ 800 | > 800 | ≤ 0.25 | ≤ 0.25 | ≤ 0.25 | 1 to 16 (≈ 1.83 to 29.2 µM) | ≥ 800 | > 800 |  | 
CCNC(=O)Nc1nc2cc(-c3cnc(N4CCC(C)(C(=O)O)CC4)nc3)cc(C#Cc3cnccn3)c2s1 [Compound 157] | ≥ 800 | > 800 | ≤ 0.25 | ≤ 0.25 | ≤ 0.25 | 0.25 to 1 (≈ 0.461 to 1.84 µM) | ≥ 800 | > 800 |  | 
CCNC(=O)Nc1nc2cc(-c3cnc(CN4CCC(C)(C(=O)O)CC4)nc3)cc(-c3ccccn3)c2s1 [Compound 160] | ≥ 800 | > 800 | 1 to 16 (≈ 1.88 to 30.1 µM) | 1 to 16 (≈ 1.88 to 30.1 µM) | 1 to 16 (≈ 1.88 to 30.1 µM) | 1 to 16 (≈ 1.88 to 30.1 µM) | ≥ 800 | > 800 |  | 
CCNC(=O)Nc1nc2cc(-c3cnc(N4CCCC4(C)C(=O)O)nc3)cc(-c3ccccn3)c2s1 (stereo not drawn) [Compound 163] | ≥ 800 | > 800 | 0.25 to 1 (≈ 0.496 to 1.99 µM) | ≤ 0.25 | ≤ 0.25 | 0.25 to 1 (≈ 0.496 to 1.99 µM) | ≥ 800 | > 800 |  | 
CCNC(=O)Nc1nc2cc(-c3cnc(N4CCC(C(=O)O)(C(F)(F)F)C4)nc3)cc(-c3ccccn3)c2s1 (stereo not drawn) [Compound 164] | ≥ 800 | > 800 | 1 to 16 (≈ 1.79 to 28.7 µM) | 1 to 16 (≈ 1.79 to 28.7 µM) | 0.25 to 1 (≈ 0.448 to 1.79 µM) | > 16 |  |  |  | 
CCNC(=O)Nc1nc2cc(-c3cnc(N4CC5CCCC5(C(=O)O)C4)nc3)cc(-c3ccccn3)c2s1 (stereo not drawn) [Compound 165] | ≥ 800 | > 800 | ≤ 0.25 | ≤ 0.25 | ≤ 0.25 | 1 to 16 (≈ 1.89 to 30.2 µM) |  |  |  | 
CCNC(=O)Nc1nc2cc(-c3cnc(N4CCC(NC(=O)OC(C)(C)C)(C(=O)OC)CC4)nc3)cc(-c3ccccn3)c2s1 [Compound 167] | 12.5 (≈ 19.8 µM) | 12.5 to 400 (≈ 19.8 to 632 µM) | 1 to 16 (≈ 1.58 to 25.3 µM) | ≤ 0.25 | ≤ 0.25 | > 16 |  |  |  | 

— patent US9181234B2, “Antibacterial compounds” (priority 2010, dated 2015)
